Test system: patients after acute myocardial infarction
Experiment: TCM symptom score, total and single (chest pain, chest tightness, short breath, fatigue, palpitation, spontaneous perspiration, pale complexion), same clinical trial
Type: in vivo, human
Parameters: total score of TCM symptom, Mean / total score of TCM symptom, Min / total score of TCM symptom, Max / total score of TCM symptom, Md / change of total score of TCM symptom, Mean / change of total score of TCM symptom, Max / change of total score of TCM symptom, Md: scale not given here
Details: FAS
Text: 3508 patients who were in accordance with the diagnostic standards of AMI for 28 days to 2 years and differentiated as Qi deficiency and blood stagnation syndrome by TCM were studied. 0.5 g Chinese medicine composition prepared by the method of EXAMPLE 1 (Coded as QSYQ) was administrated half an hour after meal, 3 times per day.
They included the overall survival time, angina pectoris score, TCM symptom score and life quality score, where angina pectoris score, TCM symptom score and life quality score were evaluated at randomization, in 1st, 3rd, 6th, 9th, 12th month after treatment and 18th month after follow-up.
The analysis method referred to the angina pectoris score.

[1] = 9 months after treatment-baseline
[2] = 12 months after treatment-baseline

## CC(=O)Oc1ccccc1C(=O)O [Control group, aspirine]
[1]
  change of pale complexion −1, number of patients: 59
  change of pale complexion −1, percent of patients: (3.45%)
  change of palpitation 0, number of patients: 948
  change of palpitation 0, percent of patients: (55.44%)
  change of palpitation 1, number of patients: 557
  change of palpitation 1, percent of patients: (32.57%)
  change of palpitation 2, number of patients: 76
  change of palpitation 2, percent of patients: (4.44%)
  change of palpitation 3, number of patients: 7
  change of palpitation 3, percent of patients: (0.41%)
  change of palpitation −1, percent of patients: (6.84%)
  change of palpitation −2, number of patients: 5
  change of palpitation −2, percent of patients: (0.29%)
  change of palpitation −3, number of patients: 0
  change of palpitation −3, percent of patients: (0.00%)
  change of short breath 0, % of patients: (59.06%)
  change of short breath 0, number of patients: 1010
  change of short breath 2, % of patients: (30.35%)
  change of short breath 2, number of patients: 519
  change of short breath 4, % of patients: (3.57%)
  change of short breath 4, number of patients: 61
  change of short breath 6, % of patients: (0.47%)
  change of short breath 6, number of patients: 8
  change of short breath −2, % of patients: (6.26%)
  change of short breath −2, number of patients: 107
  change of short breath −4, % of patients: (0.23%)
  change of short breath −4, number of patients: 4
  change of short breath −6, % of patients: (0.06%)
  change of short breath −6, number of patients: 1
  change of spontaneous perspiration 0, number of patients: 910
  change of spontaneous perspiration 0, percent of patients: (53.25%)
  change of spontaneous perspiration 1, number of patients: 491
  change of spontaneous perspiration 1, percent of patients: (28.73%)
  change of spontaneous perspiration 2, number of patients: 113
  change of spontaneous perspiration 2, percent of patients: (6.61%)
  change of spontaneous perspiration 3, number of patients: 31
  change of spontaneous perspiration 3, percent of patients: (1.81%)
  change of spontaneous perspiration −1, number of patients: 154
  change of spontaneous perspiration −1, percent of patients: (9.01%)
  change of spontaneous perspiration −2, number of patients: 10
  change of spontaneous perspiration −2, percent of patients: (0.59%)
  change of spontaneous perspiration −3, number of patients: 0
  change of spontaneous perspiration −3, percent of patients: (0.00%)
  change of total score of TCM symptom, Max: 15.00
  change of total score of TCM symptom, Md: −4.00
  change of total score of TCM symptom, Mean: −4.52
  change of total score of TCM symptom, Min: −33.00
12 months after treatment
  change of short breath 0, number of patients: 955
  distribution of total score of TCM symptom: Medium, number of patients: 235
  distribution of total score of TCM symptom: Medium, percentage of patients: (16.31%)
  distribution of total score of TCM symptom: Mild, number of patients: 1205
  distribution of total score of TCM symptom: Mild, percentage of patients: (83.62%)
  distribution of total score of TCM symptom: Severe, number of patients: 1
  distribution of total score of TCM symptom: Severe, percentage of patients: (0.07%)
  fatigue score 0, % of patients: (36.67%)
  fatigue score 0, number of patients: 630
  fatigue score 2, % of patients: (58.21%)
  fatigue score 2, number of patients: 1000
  fatigue score 4, % of patients: (4.42%)
  fatigue score 4, number of patients: 76
  fatigue score 6, % of patients: (0.70%)
  fatigue score 6, number of patients: 12
  pale complexion score 0, number of patients: 1011
  pale complexion score 0, percent of patients: (58.85%)
  pale complexion score 1, number of patients: 590
  pale complexion score 1, percent of patients: (34.34%)
  pale complexion score 2, number of patients: 104
  pale complexion score 2, percent of patients: (6.05%)
  pale complexion score 3, number of patients: 13
  pale complexion score 3, percent of patients: (0.76%)
  palpitation score 0, number of patients: 669
  palpitation score 0, percent of patients: (38.94%)
  palpitation score 2, number of patients: 892
  palpitation score 2, percent of patients: (51.92%)
  palpitation score 4, number of patients: 138
  palpitation score 4, percent of patients: (8.03%)
  palpitation score 6, number of patients: 19
  palpitation score 6, percent of patients: (1.11%)
  short breath score 0, % of patients: (31.72%)
  short breath score 0, number of patients: 545
  short breath score 3, % of patients: (57.92%)
  short breath score 3, number of patients: 995
  short breath score 6, % of patients: (10.07%)
  short breath score 6, number of patients: 173
  short breath score 9, % of patients: (0.29%)
  short breath score 9, number of patients: 5
  spontaneous perspiration score 0, number of patients: 845
  spontaneous perspiration score 0, percent of patients: (49.19%)
  spontaneous perspiration score 1, number of patients: 804
  spontaneous perspiration score 1, percent of patients: (46.80%)
  spontaneous perspiration score 2, number of patients: 58
  spontaneous perspiration score 2, percent of patients: (3.38%)
  spontaneous perspiration score 3, number of patients: 11
  spontaneous perspiration score 3, percent of patients: (0.64%)
  total score of TCM symptom, Max: 37.00
  total score of TCM symptom, Md: 8.00
  total score of TCM symptom, Mean: 8.41
  total score of TCM symptom, Min: 0.00
[2]
  change of fatigue 0, % of patients: (47.08%)
  change of fatigue 0, number of patients: 805
  change of fatigue 2, % of patients: (35.38%)
  change of fatigue 2, number of patients: 605
  change of fatigue 4, % of patients: (9.59%)
  change of fatigue 4, number of patients: 164
  change of fatigue 6, % of patients: (1.46%)
  change of fatigue 6, number of patients: 25
  change of fatigue −2, % of patients: (5.85%)
  change of fatigue −2, number of patients: 100
  change of fatigue −4, % of patients: (0.64%)
  change of fatigue −4, number of patients: 11
  change of fatigue −6, % of patients: (0.00%)
  change of fatigue −6, number of patients: 0
  change of pale complexion 0, number of patients: 1202
  change of pale complexion 0, percent of patients: (70.37%)
  change of pale complexion 1, number of patients: 450
  change of pale complexion 1, percent of patients: (26.35%)
  change of pale complexion −1, number of patients: 56
  change of pale complexion −1, percent of patients: (3.28%)
  change of palpitation 0, number of patients: 882
  change of palpitation 0, percent of patients: (51.58%)
  change of palpitation 1, number of patients: 602
  change of palpitation 1, percent of patients: (35.20%)
  change of palpitation 2, number of patients: 102
  change of palpitation 2, percent of patients: (5.96%)

— patent US9211310B2, “Use of a Chinese medicine composition in preparing medicaments for treating secondary prevention of myocardial infarction” (TASLY PHARMACEUTICAL GROUP CO., LTD, priority 2010, dated 2015)
